{"source": "patent US20230381196A1", "about": "“COMPOSITIONS COMPRISING BISFLUOROALKYL-1,4-BENZODIAZEPINONE COMPOUNDS FOR TREATING ADENOID CYSTIC CARCINOMA” (AYALA PHARMACEUTICALS INC., priority 2020, published 2023)", "key": {"[1]": {"assay": "Phase 2 trial: treatment-related adverse events", "format": "in vivo, human", "conditions": "4 mg IV once weekly", "experimental": "Starting on Cycle 1, Day 1, eligible subjects enrolled in the study received Compound (1), 4 mg intravenously (IV) weekly (qwk), on Days 1, 8, 15, and 22 of each 28-day cycle until disease progression, unacceptable toxicity, or consent withdrawal. Paired tumor biopsies were collected at screening (fresh or archival within 5 years) and upon confirmation of disease progression (provided medically safe and not contraindicated). Samples were sent to a central vendor for NGS analysis. Formalin-fixed paraffin embedded (FFPE) slides were evaluated by IHC for NICDI stain.\nDuring the treatment period, subjects underwent radiographic assessments every 8 weeks (±3 days) for review by Independent Central Review (ICR) as well as by the Investigator. Other assessments performed included safety exploratory biomarkers.\nCompound (1) is a potent and selective inhibitor of gamma secretase-mediated Notch signaling. Compound (1) was administered IV at the dose of 4 mg every 7 days (1 day; QW) over 28-day cycles until disease progression, unacceptable toxicity, or consent withdrawal. Compound (1) injection was developed as a single-use sterile solution (1.2 mg/mL; […]) for IV administration in clinical studies; each vial contained 5 mL (equivalent of 6 mg per vial). It was formulated as a sterile concentrate containing Cremophor and ethanol and was diluted with 0.9% Sodium Chloride injection, USP (normal saline) or 5% Dextrose Injection, USP (D5W) to concentrations between 0.01 mg/mL and 0.06 mg/mL. In order to reduce the risk of infusion reactions caused by Cremophor, premedication with H1- and H2-blockers (diphenhydramine and ranitidine or equivalents) or dexamethasone (8-10 mg) were administered.\nSubjects selected for a global open-label, multicenter study with ACC and Notch mutations had disease progression or were newly diagnosed with metastatic disease (FIG. 1). Based on the safety and activity found in the initial once weekly cohort treated intravenously with 4 mg of Compound (1), the study was amended to add a cohort of 42 additional subjects treated intravenously with 6 mg of Compound (1) once weekly. The primary endpoint is objective response rate (ORR) by investigator. As of Jul. 30, 2020, 45 subjects had been treated in the 4 mg cohort and these were evaluable for safety analysis. Of these 45 subjects, 40 had scans available at week 8 (Table 2), and the scans were evaluable for efficacy assessment. Sixty percent of subjects had prior chemotherapy, and 95% prior radiotherapy (Table 2). Lung and bone were the most common sites of recurrence (Table 2)."}, "Notch2": {"test_system": "Notch2", "assay": "Inhibition of Constitutive Notch Signaling", "format": "cell-based"}, "ACC112 cell line": {"test_system": "ACC112 cell line", "assay": "Alamar Blue cell viability assay", "format": "cell-based, Human", "conditions": "10 nM, 14 days, vs DMSO", "experimental": "(§1) FIG. 10A. Effect of Compound (1) monotherapy on cell viability in ACC cell lines. ACC83 and ACC112 cell lines were treated with 10 nM Compound (1) or DMSO (control) for 14 days, and cell viability relative to day 0 was determined using an Alamar Blue assay on days 7, 11 and 14. **p<0.01; ***p<0.001.\n(§2) Methods: The naturally immortalized sublingual gland derived Human ACC cell line ACC83 and the Human HPV-transformed submaxillary gland derived cell line ACC112 were treated with Compound (1) at 10 nM concentration or DMSO (control) for 14 days. ACC83 cells were cultured in RPMI 1640 medium supplemented with 10% FBS, 10,000 u/ml penicillin-streptomycin and 1 ml L-glutamine. ACC112 cell line was additionally supplemented with 20 ng/ml epidermal growth factor, 400 ng/ml hydrocortisone and 5 μg/ml insulin. Cell viability relative to day 0 was determined using an Alamar Blue assay on days 7, 11 and 14. Cell lines were stained with NICD1 (Cell Signaling, 4147S, 1:200), HES1 (Abcam, ab71559, 1:400), HEY1 (Millipore, AB5714, 1:200), and HESS (Novus Biologicals, NBP241305, 1:200) antibodies using iView DAB detection and the Ventana BenchMark XT staining system (Roche). Area and intensity of diaminobenzidine (DAB) signal was quantified using IHC Profiler color deconvolution plugin within ImageJ software."}, "ACC83 cell line": {"test_system": "ACC83 cell line", "assay": "Alamar Blue cell viability assay", "format": "cell-based, Human", "conditions": "10 nM, 14 days, vs DMSO", "experimental": "as §1, §2"}, "[2]": {"test_system": "NOTCH signaling (NICD1, HES1, HESS, HEY1) in ACC112 cells", "assay": "NICD1 and NOTCH downstream targets by IHC and western blot", "format": "cell-based, Human", "conditions": "10 nM", "experimental": "(§3) FIG. 10B. Effect of Compound (1) monotherapy on NICD1 in ACC cell lines. NICD1 immunohistochemical staining of ACC83 (left) or ACC112 (right) cells treated with either 10 nM Compound (1) or DMSO (control) for 14 days.\n(§4) FIG. 10C. Effect of Compound (1) monotherapy on NOTCH downstream targets in ACC cell lines. Cell lysates were collected at day 14 from Compound (1)- or DMSO (control)-treated ACC83 and ACC112 cells and analyzed by western blot for the expression of NICD1, HES1, HESS and HEY1 proteins, with GAPDH used a loading control.\nas §2"}, "[3]": {"test_system": "NOTCH signaling (NICD1, HES1, HESS, HEY1) in ACC83 cells", "assay": "NICD1 and NOTCH downstream targets by IHC and western blot", "format": "cell-based, Human", "conditions": "10 nM", "experimental": "as §3, §4, §2"}, "[4]": {"assay": "Tolerability of monotherapy and combination therapy in naive mice", "conditions": "Compound (1) 3.0 mg/kg PO qdx4", "method": "Naïve mice were randomly divided into 17 groups (n=5). Control group was administered vehicle once every day for four consecutive days (qdx4). […] Dosing was initiated on Day 0. Animal weight was measured every day for two weeks."}}}
{"smiles": "CN1C(=O)[C@@H](NC(=O)[C@H](CCC(F)(F)F)[C@H](CCC(F)(F)F)C(N)=O)N=C(c2ccccc2)c2ccccc21", "note": "[Compound (1), (2R,3S)—N-((3S)-1-methyl-2-oxo-5-phenyl-2,3-dihydro-1H-1,4-benzodiazepin-3-yl)-2,3-bi s(3,3,3-trifluoropropyl)succinamide]", "values": [{"measurement": "cases of diarrhea that were Grade 1/2", "setting": "[1]", "value": "25/27"}, {"measurement": "subjects who died due to treatment-related pneumonia", "setting": "[1]", "value": "one"}, {"measurement": "subjects with a Grade 4 treatment-related adverse event of hyponatremia", "setting": "[1]", "value": "one"}, {"measurement": "tolerability in subjects", "setting": "[1]", "value": "generally well tolerated"}, {"measurement": "treatment-related diarrhea", "setting": "[1]", "value": 60, "unit": "%"}, {"measurement": "Any TRAE, Grade 3/4", "setting": "[1]; N = 45", "value": "9 (20) n (%)"}, {"measurement": "Cough TRAE, Any Grade", "setting": "[1]; N = 45", "value": "12 (27) n (%)"}, {"measurement": "Cough TRAE, Grade 3/4", "setting": "[1]; N = 45", "value": "0 n (%)"}, {"measurement": "Decreased appetite TRAE, Any Grade", "setting": "[1]; N = 45", "value": "7 (16) n (%)"}, {"measurement": "Decreased appetite TRAE, Grade 3/4", "setting": "[1]; N = 45", "value": "1 (2) n (%)"}, {"measurement": "Diarrhea TRAE, Any Grade", "setting": "[1]; N = 45", "value": "27 (60) n (%)"}, {"measurement": "Diarrhea TRAE, Grade 3/4", "setting": "[1]; N = 45", "value": "2 (4) n (%)"}, {"measurement": "Dysgeusia TRAE, Any Grade", "setting": "[1]; N = 45", "value": "7 (16) n (%)"}, {"measurement": "Dysgeusia TRAE, Grade 3/4", "setting": "[1]; N = 45", "value": "0 n (%)"}, {"measurement": "Epistaxis TRAE, Any Grade", "setting": "[1]; N = 45", "value": "9 (20) n (%)"}, {"measurement": "Epistaxis TRAE, Grade 3/4", "setting": "[1]; N = 45", "value": "0 n (%)"}, {"measurement": "Fatigue TRAE, Any Grade", "setting": "[1]; N = 45", "value": "23 (51) n (%)"}, {"measurement": "Fatigue TRAE, Grade 3/4", "setting": "[1]; N = 45", "value": "2 (4) n (%)"}, {"measurement": "Hypophosphatemia TRAE, Any Grade", "setting": "[1]; N = 45", "value": "19 (42) n (%)"}, {"measurement": "Hypophosphatemia TRAE, Grade 3/4", "setting": "[1]; N = 45", "value": "2 (4) n (%)"}, {"measurement": "Nausea TRAE, Any Grade", "setting": "[1]; N = 45", "value": "22 (49) n (%)"}, {"measurement": "Nausea TRAE, Grade 3/4", "setting": "[1]; N = 45", "value": "1 (2) n (%)"}, {"measurement": "Rash maculo-papular TRAE, Any Grade", "setting": "[1]; N = 45", "value": "8 (18) n (%)"}, {"measurement": "Rash maculo-papular TRAE, Grade 3/4", "setting": "[1]; N = 45", "value": "0 n (%)"}, {"measurement": "Vomiting TRAE, Any Grade", "setting": "[1]; N = 45", "value": "12 (27) n (%)"}, {"measurement": "Vomiting TRAE, Grade 3/4", "setting": "[1]; N = 45", "value": "0 n (%)"}, {"measurement": "subjects with treatment-related adverse events of Grade 3/4", "setting": "[1]; nine subjects", "value": 20, "unit": "%"}, {"measurement": "Any TRAE, Any Grade", "setting": "[1]; safety population N = 45", "value": "45 (100) n (%)"}, {"measurement": "IC50", "setting": "Notch2", "value": 0.7, "unit": "nM"}, {"measurement": "cell growth (cell viability relative to day 0)", "setting": "ACC112 cell line", "value": "potently inhibited cell growth"}, {"measurement": "cell growth (cell viability relative to day 0)", "setting": "ACC83 cell line", "value": "potently inhibited cell growth"}, {"measurement": "NICD1 (Western blotting and IHC)", "setting": "[2]; 14 days, vs DMSO", "value": "reduction in NICD1"}, {"measurement": "expression levels of NOTCH downstream targets HES1, HESS and HEY1", "setting": "[2]; day 14, western blot", "value": "substantially downregulated expression levels"}, {"measurement": "NICD1 (Western blotting and IHC)", "setting": "[3]; 14 days, vs DMSO", "value": "reduction in NICD1"}, {"measurement": "expression levels of NOTCH downstream targets HES1, HESS and HEY1", "setting": "[3]; day 14, western blot", "value": "substantially downregulated expression levels"}, {"measurement": "tolerability", "setting": "[4]", "value": "good tolerability"}]}
